How the values were obtained:
[1] = system: IL-1-beta secretion by peripheral blood mononuclear cells (PBMC); assay: LPS-stimulated PBMC cytokine secretion, IL-1-beta ELISA; type: cell-based, human
Source text: (§1) FIG. 1 and the following two tables show data from an in vitro experiment using PBMC from a healthy donor who provided peripheral blood mononuclear cells (PBMC) for this experiment. (PBMC are isolated from whole blood by gradient centrifugation. PBMC contain mostly lymphocytes and monocytes (neutrophils having been excluded by the separation procedure). They are commonly used to assess immune functions in vitro.) The PBMC were stimulated with LPS. (LPS is lipopolysaccharide, a component of bacterial cell wall, which is commonly used as an antigen non-specific stimulator (also called a mitogen) of immune cell proliferation, synthesis and secretion. It is commonly used in vitro to simulate an immune response in vivo. Chemicals which block the LPS stimulated synthesis or secretion of pro-inflammatory mediators by immune cells (primarily lymphocytes and monocytes) may have similar activity in vivo and therefore may have anti-inflammatory activity in vivo.) After 24 to 48 hours, the supernatant from each culture well was collected and assayed for the pro-inflammatory mediator noted (tumer necrosis factor (TNF)-alpha or IL-1-beta using a modified enzyme linked immunosorbent assay (ELISA). […]

[2] = system: TNF-alpha secretion by peripheral blood mononuclear cells (PBMC); assay: LPS-stimulated PBMC cytokine secretion, TNF-alpha ELISA; type: cell-based, human
Source text: as §1

[3] = eggplant extract plus iron at 0.25%, percent of maximal secretion

**Q.** What does the source list for `C[C@]12CCC(=O)C=C1CC[C@@H]1[C@@H]2[C@@H](O)C[C@@]2(C)[C@H]1CC[C@]2(O)C(=O)CO` [Hydrocortisone]?
**A.** Mean IL-1 beta release ([1]; eggplant extract + iron at 0.25%, supernatant after 24 to 48 hours, +LPS no drug 3507.8): 1757.8 picograms of cytokine per 1x10^6 cells; Mean IL-1-beta released, percent of +LPS (no drug) [1, 3]: 50%; Mean TNF-alpha release ([2]; eggplant extract + iron at 0.25%, supernatant after 24 to 48 hours, +LPS no drug 11753.0): 298.8 picograms of cytokine per 1x10^6 cells; Mean TNF-alpha released, percent of +LPS (no drug) [2, 3]: 3%

From patent US7341751B2, “Eggplant extract for medical treatments” (priority 2006, dated 2008)
